Measurements taken from paper PMC10916518 (Drug Design, Development and Therapy, 2024).
Converted amounts (≈) assume the structure as drawn.

What was measured:
[1] = tested on: RD cells; experiment: Cytotoxicity of medicines by CCK-8; assay type: cell-based, human; settings: 48 h
[2] = tested on: EV71; experiment: Inhibition of cell death caused by EV71 infection; assay type: cell-based, Enterovirus 71; settings: Enterovirus A, EV71, RD, 48 h
[3] = tested on: EV71; settings: Vero cells pretreated with 200 μM before infection; cited from earlier work
[4] = Cytotoxicity of medicines by CCK-8; assay type: cell-based, human; settings: human, RD cells

Row | Compound | MNTC [1] | further results
1 | O=c1c(O[C@@H]2O[C@H](CO)[C@@H](O)[C@H](O)[C@H]2O)c(-c2ccc(O)cc2)oc2cc(O)cc(O)c12 [Astragalin] | 200.00 µg/mL | –
2 | O=C(O)/C=C/c1ccc(O)c(O)c1 [Caffeic acid] | 50.00 µg/mL | –
3 | O=C(/C=C/c1ccc(O)c(O)c1)O[C@H]1[C@H](O)C[C@](O)(C(=O)O)C[C@H]1O [Cryptochlorogenic acid, cryptochlorogenic acid] | 100.00 µg/mL | –
4 | O=C(O)c1cc(O)c(O)c(O)c1 [Gallic acid, gallic acid] | 6.25 µg/mL | –
5 | O=c1c(O[C@@H]2O[C@H](CO)[C@H](O)[C@H](O)[C@H]2O)c(-c2ccc(O)c(O)c2)oc2cc(O)cc(O)c12 [Hyperoside] | 200.00 µg/mL | –
6 | O=C(/C=C/c1ccc(O)c(O)c1)O[C@H](Cc1ccc(O)c(O)c1)C(=O)O [Rosmarinic acid, rosmarinic acid] | 50.00 µg/mL | IC50 [2]: 11.9 µg/mL (≈ 33 µM)
7 | C[C@@H]1O[C@@H](OC[C@H]2O[C@@H](Oc3c(-c4ccc(O)c(O)c4)oc4cc(O)cc(O)c4c3=O)[C@H](O)[C@@H](O)[C@@H]2O)[C@H](O)[C@H](O)[C@H]1O [Rutin, rutin] | 200.00 µg/mL | EV71-induced CPE and viral replication [3]: significantly suppress
8 | NC(=O)c1ncn([C@@H]2O[C@H](CO)[C@@H](O)[C@H]2O)n1 [ribavirin, Ribavirin, reference compound] | – | CC50 at 48 h [4]: 2430 µg/mL (≈ 9950 µM); MNTC (maximum non-toxic concentration) ([1]; cell survival rate ≥ 90%): 1 mg/mL; IC50 [2]: 290 µg/mL (≈ 1190 µM)
